Assay: Metabolic stability in pooled liver microsomes
Type: in vitro ADME, human
Details: 37° C., test compound 1 μM, microsomal protein 0.5 mg/mL, NADPH 1 mM; for half-life at 1 μM: human, pooled liver microsomes, pH 7.6, human liver microsomes, read-out: Stability in human liver microsomes, t1/2
Procedure: The metabolic degradation of the test compound is assayed at 37° C. with pooled liver microsomes from various species. The final incubation volume of 100 μl per time point contains TRIS buffer pH 7.6 at room temperature (0.1 M), magnesium chloride (5 mM), microsomal protein (0.5 mg/mL) and the test compound at a final concentration of 1 μM. Following a short preincubation period at 37° C., the reactions are initiated by addition of beta-nicotinamide adenine dinucleotide phosphate, reduced form (NADPH, 1 mM), and terminated by transferring an aliquot into solvent after different time points. After centrifugation (10000 g, 5 min), an aliquot of the supernatant is assayed by LC-MS/MS for the amount of parent compound. The half-life is determined by the slope of the semi-logarithmic plot of the concentration-time profile.

SMILES	Stability in human liver microsomes, t1/2	half-life at 1 μM
O=C(c1ccc2[nH]cnc2c1)N1CCC[C@@H]2c3ccccc3CC[C@@H]21 (relative stereo) [Example 1, (1H-Benzoimidazol-5-yl)-(cis-2,3,4a,5,6,10b-hexahydro-1H-benzo[f]quinolin-4-yl)-methanone]	>1.5 h	–
C[C@]12CCCN(C(=O)c3ccc4[nH]cnc4c3)[C@@H]1CCc1ccccc12 (relative stereo) [Example 11, (1H-Benzoimidazol-5-yl)-(trans-10b-methyl-2,3,4a,5,6,10b-hexahydro-1H-benzo[t]quinolin-4-yl)-methanone]	–	0.633 h
NC(=O)c1ccc2c(c1)CC[C@H]1[C@@H]2CCCN1C(=O)c1ccc2[nH]cnc2c1 (relative stereo) [Example 37, cis-4-(1H-Benzoimidazole-5-carbonyl)-1,2,3,4,4a,5,6,10b-octahydro-benzo[f]quinoline-8-carboxylic acid amide]	–	> 1.5 h
CC[C@]12CCCN(C(=O)c3ccc4[nH]cnc4c3)[C@@H]1CCc1ccccc12 (relative stereo) [Example 105, (1H-Benzoimidazol-5-yl)-(trans-10b-ethyl-2,3,4a,5,6,10b-hexahydro-1H-benzo[f]quinolin-4-yl)-methanone]	–	0.367 h
N#Cc1ccc2c(c1)[C@H]1CCCN(C(=O)c3ccc4[nH]cnc4c3)[C@H]1C2 (relative stereo) [Example 106, cis-1-(1H-Benzoimidazole-5-carbonyl)-2,3,4,4a,9,9a-hexahydro-1H-indeno[2,1-b]pyridine-6-carbonitrile]	–	> 1.5 h
C#Cc1ccc2c(c1)[C@H]1CCCN(C(=O)c3ccc4[nH]cnc4c3)[C@H]1C2 (relative stereo) [Example 155, (1H-Benzoimidazol-5-yl)-(cis-6-ethynyl-2,3,4,4a,9,9a-hexahydro-indeno[2,1-b]pyridin-1-yl)-methanone]	–	0.467 h
O=C(c1ccc2[nH]cnc2c1)N1CCC[C@@H]2c3ccccc3CC[C@@H]21 [Example 2, (1H-Benzoimidazol-5-yl)-[(4a-S,10b-R)-2,3,4a,5,6,10b-hexahydro-1H-benzo[l]quinolin-4-yl]-methanone]	0.483 h	–
N#Cc1ccc2c(c1)[C@H]1CCCN(C(=O)c3ccc4[nH]cnc4c3)[C@H]1C2 [Example 107, (4a-R,9a-S)-1-(1H-Benzoimidazole-5-carbonyl)-2,3,4,4a,9,9a-hexahydro-1H-indeno[2,1-b]pyridine-6-carbonitrile]	–	> 1.5 h
N#Cc1ccc2c(c1)[C@@H]1CCCN(C(=O)c3ccc4[nH]cnc4c3)[C@@H]1C2 [Example 108, (4a-S,9a-R)-1-(1H-Benzoimidazole-5-carbonyl)-2,3,4,4a,9,9a-hexahydro-1H-indeno[2,1-b]pyridine-6-carbonitrile]	–	> 1.5 h
N#Cc1ccc2c(c1)C[C@H]1[C@@H]2CCCN1C(=O)c1ccc2[nH]cnc2c1 [Example 148, (4a-R,9a-S)-1-(1H-Benzoimidazole-5-carbonyl)-2,3,4,4a,9,9a-hexahydro-1H-indeno[2,1-b]pyridine-7-carbonitrile]	–	> 1.5 h

Now from value to compound:

Stability in human liver microsomes, t1/2	half-life at 1 μM	SMILES
–	> 0.75 h	C[C@]12CCCN(C(=O)c3ccc4[nH]cnc4c3)[C@H]1CCc1ccccc12 (relative stereo) [Example 10, (1H-Benzoimidazol-5-yl)-(cis-10b-methyl-2,3,4a,5,6,10b-hexahydro-1H-benzo[f]quinolin-4-yl)-methanone]
–	> 1.5 h	O=C(c1ccc2[nH]cnc2c1)N1CCC[C@@H]2c3cc(F)cc(F)c3CC[C@@H]21 (relative stereo) [Example 20, (1H-Benzoimidazol-5-yl)-(cis-7,9-difluoro-2,3,4a,5,6,10b-hexahydro-1H-benzo[f]quinolin-4-yl)-methanone]
–	> 1.5 h	N#Cc1ccc2c(c1)CC[C@H]1[C@@H]2CCCN1C(=O)c1ccc2[nH]cnc2c1 (relative stereo) [Example 42, cis-4-(1H-Benzoimidazole-5-carbonyl)-1,2,3,4,4a,5,6,10b-octahydro-benzo[f]quinoline-8-carbonitrile]
–	> 1.5 h	N#Cc1ccc2c(c1)[C@H]1CCCN(C(=O)c3ccc4[nH]cnc4c3)[C@H]1CC2 (relative stereo) [Example 91, cis-4-(1H-Benzoimidazole-5-carbonyl)-1,2,3,4,4a,5,6,10b-octahydro-benzo[f]quinoline-9-carbonitrile]
–	> 1.5 h	O=C(c1ccc2[nH]cnc2c1)N1CCC[C@@H]2c3ccccc3C[C@@H]21 (relative stereo) [Example 93, (1H-Benzoimidazol-5-yl)-(cis-2,3,4,4a,9,9a-hexahydro-indeno[2,1-b]pyridin-1-yl)-methanone]
–	> 0.75 h	C[C@H]1CCN(C(=O)c2ccc3[nH]cnc3c2)[C@H]2Cc3ccccc3[C@@H]12 [Example 146, (1H-Benzoimidazol-5-yl)-(cis-4-methyl-2,3,4,4a,9,9a-hexahydro-indeno[2,1-b]pyridin-1-yl)-methanone]
–	> 1.5 h	Cc1cc(C(=O)N2CCC[C@@H]3c4cc(C#N)ccc4C[C@@H]32)cc2nc[nH]c12 [Example 152, (4a-R,9a-S)-1-(7-Methyl-1H-benzoimidazole-5-carbonyl)-2,3,4,4a,9,9a-hexahydro-1H-indeno[2,1-b]pyridine-6-carbonitrile]
–	> 1.5 h	Cc1cc2[nH]cnc2cc1C(=O)N1CCC[C@@H]2c3cc(C#N)ccc3C[C@@H]21 [Example 153, (4a-R,9a-S)-1-(6-Methyl-1H-benzoimidazole-5-carbonyl)-2,3,4,4a,9,9a-hexahydro-1H-indeno[2,1-b]pyridine-6-carbonitrile]
